EPA's ToxValDB 9.5 (doi:10.2903/j.efsa.2010.1872)
Values after ≈ are worked out from the molar mass of the structure shown.

Columns and labels:
Anas platyrhynchos = conditions: oral, mortality
Apis mellifera = conditions: acute; oral; unspecified; mortality
Bibionidae = conditions: chronic/long-term; duration: 28 days; development
Daphnia magna = conditions: chronic/long-term; duration: 21 days
Folsomia candida = conditions: chronic/long-term; duration: 28 days; mortality
Tagia sp. = conditions: acute, duration: 14 days
Typhlodromus pyri [1] = conditions: chronic/long-term; mortality
Typhlodromus pyri [2] = test: LR50; higher = less toxic; conditions: not reported; mortality
[3] = reproduction developmental, reproduction

## CC1(C)[C@H](C(=O)O[C@H](C#N)c2cccc(Oc3ccccc3)c2)[C@@H]1/C=C\C(=O)OC(C(F)(F)F)C(F)(F)F [Acrinathrin]
Anas platyrhynchos; acute, unspecified
  LD50: > 2000 mg/kg-day
Anas platyrhynchos; short-term, feed
  NOEC: 173 mg/kg-day
Apis mellifera
  LD50: 0.077 µg/piece
Bibionidae
  NOEC: 3.1e-05 mg/L
Colinus virginianus; acute, oral, mortality
  LD50: > 2250 mg/kg-day
Colinus virginianus; [3]
  NOEC: 19.9 mg/kg-day
Colinus virginianus; short-term, oral, diet, mortality
  NOEC: 325 mg/kg-day
Daphnia magna
  NOEC: 3.2e-06 mg/L
Folsomia candida
  NOEC: < 1 mg/kg
Pimephales promelas; acute, duration: 96 hours, mortality
  LC50: 1.7 ng/mL (≈ 3.14 nM)
Pimephales promelas; chronic/long-term, duration: 21 days
  NOEC: 1.1e-05 mg/L
Rattus norvegicus; acute, neurology
  NOAEL: 1 mg/kg-day
Rattus norvegicus; acute, oral, mortality
  LD50: > 5000 mg/kg-day
Rattus norvegicus; [3]
  NOAEL: 9.4 mg/kg-day
  NOEL: 2.5 mg/kg-day
Tagia sp.
  NOEC: 1.6 mg/kg
Tagia sp.; mortality
  LC50: > 1000 mg/kg
Typhlodromus pyri [1]
  NOEC: 0.00068 g/ha
Typhlodromus pyri [2]
  LR50: 0.006 g/ha
